Reference: BindingDB's records for doi:10.1002/cbic.201100121 (Mcmaster University, 2011)

Each compound was assayed against T1, Homoserine kinase (Escherichia coli (strain K12), UniProt P00547) (assay: Enzyme Inhibition Assay). Conditions: pH 7.5; 37 °C.
T1 sequence (P00547 whole entry): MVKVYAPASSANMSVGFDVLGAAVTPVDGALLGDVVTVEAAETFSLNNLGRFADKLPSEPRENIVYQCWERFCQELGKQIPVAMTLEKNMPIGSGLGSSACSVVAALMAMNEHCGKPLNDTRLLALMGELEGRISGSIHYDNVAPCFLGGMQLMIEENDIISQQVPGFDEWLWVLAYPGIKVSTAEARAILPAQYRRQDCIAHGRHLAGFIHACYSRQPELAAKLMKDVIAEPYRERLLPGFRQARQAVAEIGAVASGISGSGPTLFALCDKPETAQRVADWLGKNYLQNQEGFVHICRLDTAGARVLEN
Text: The phosphorylation of L-Hse was monitored by coupling the formation of ADP with pyruvate kinase and lactate dehydrogenase (PK/LDH). The resulting oxidation of NADH was monitored at 340 nm by using a SpectraMax plate reader in a 96-well format.

Structure (SMILES) | Ki [µM]
CC(=O)C(C#N)C(=O)Nc1cc(Br)ccc1Br (stereo unspecified) | 12
O=C1C(O)c2cc(O)c(O)cc2OC1c1ccc(O)c(O)c1 (stereo unspecified) | 27.1
C=CC(=O)c1ccc2ccccc2c1 [Thr1 inhibitor, 1] | 32
O=C1OC2C=CCC=C2C(=O)C1Cc1c(O)c2ccccc2oc1=O (stereo unspecified) [Thr1 inhibitor, 4] | 0.46
CC(C)Cc1nc2sc3c(c2c(=O)o1)CCCCC3 [Thr1 inhibitor, 5] | 35.8
CC1NN(c2ccccc2)c2nc(C(F)(F)F)cc(O)c21 (stereo unspecified) [Thr1 inhibitor, 6] | 8.6
